According to paper PMC6271681, “Discovery of Novel c-Met Inhibitors Bearing a 3-Carboxyl Piperidin-2-one Scaffold” (Molecules, 2014):

How the values were obtained:
[1] = biological target: c-Met kinase (Homo sapiens, UniProt P08581); experiment: c-Met kinase assay (ELISA, purified recombinant protein); assay type: biochemical; conditions: for IC50: ELISA, poly(Glu,Tyr)4:1 substrate, two separate experiments; for inhibition at 10 µM / c-Met inhibition rate @10 μM: compound at 10 μM; for inhibition at 10 µM: read-out: c-Met inhibition rate @10 μM; for inhibition at 1 µM: read-out: c-Met inhibition rate @1 μM
Method: The effects of indicated compound on the activities of c-Met kinases were determined using enzyme-linked immunosorbent assays (ELISAs) with purified recombinant proteins. Briefly, 20 μg/mL poly (Glu,Tyr)4:1 (Sigma, St. Louis, MO, USA) was pre-coated in 96-well plates as a substrate. A 50-μL aliquot of 10 μmol/L ATP solution diluted in kinase reaction buffer (50 mmol/L HEPES [pH 7.4], 50 mmol/L MgCl2, 0.5 mmol/L MnCl2, 0.2 mmol/L Na3VO4, and 1 mmol/L DTT) was added to each well; 1 μL of various concentrations of indicated compound diluted in 1% DMSO (v/v) (Sigma) were then added to each reaction well. DMSO (1%, v/v) was used as the negative control. The kinase reaction was initiated by the addition of purified c-Met tyrosine kinase proteins diluted in 49 μL of kinase reaction buffer. After incubation for 60 min at 37 °C, the plate was washed three times with phosphate-buffered saline (PBS) containing 0.1% Tween 20 (T-PBS). Anti-phosphotyrosine (PY99) antibody (100 μL; 1:500, diluted in 5 mg/mL BSA T-PBS) was then added. After a 30-min incubation at 37 °C, the plate was washed three times, and 100 μL horseradish peroxidase-conjugated goat anti-mouse IgG (1:2000, diluted in 5 mg/mL BSA T-PBS) was added. The plate was then incubated at 37 °C for 30 min and washed 3 times. A 100-μL aliquot of a solution containing 0.03% H2O2 and 2 mg/ml o-phenylenediamine in 0.1 mol/L citrate buffer (pH 5.5) was added. The reaction was terminated by the addition of 50 μL of 2 mol/L H2SO4 as the color changed, and the plate was analyzed using a multi-well spectrophotometer (SpectraMAX 190, Molecular Devices, Sunnyvale, CA, USA) at 490 nm. […] The IC50 values were calculated from the inhibition curves in two separate experiments.

[2] = test system: MKN45 cells; experiment: Cell proliferation assay (SRB, 72 h); assay type: cell-based; conditions: MKN-45, MKN45 human gastric cancer cell line with constitutively active c-Met
Method: Cells were seeded in 96-well tissue culture plates. On the next day, the cells were exposed to various concentrations of compounds and further cultured for 72 h. Cell proliferation was then determined using sulforhodamine B (SRB, Sigma, St. Louis, MO, USA). The IC50 values were calculated by concentration-response curve fitting using the four-parameter method.

[3] = test system: c-Met; conditions: in Figure 2; cited from earlier work
[4] = printed in the c-Met IC50 column
[5] = compound at 1 μM, printed in the c-Met IC50 column

c-Met kinase, sequence (P08581 25-1390): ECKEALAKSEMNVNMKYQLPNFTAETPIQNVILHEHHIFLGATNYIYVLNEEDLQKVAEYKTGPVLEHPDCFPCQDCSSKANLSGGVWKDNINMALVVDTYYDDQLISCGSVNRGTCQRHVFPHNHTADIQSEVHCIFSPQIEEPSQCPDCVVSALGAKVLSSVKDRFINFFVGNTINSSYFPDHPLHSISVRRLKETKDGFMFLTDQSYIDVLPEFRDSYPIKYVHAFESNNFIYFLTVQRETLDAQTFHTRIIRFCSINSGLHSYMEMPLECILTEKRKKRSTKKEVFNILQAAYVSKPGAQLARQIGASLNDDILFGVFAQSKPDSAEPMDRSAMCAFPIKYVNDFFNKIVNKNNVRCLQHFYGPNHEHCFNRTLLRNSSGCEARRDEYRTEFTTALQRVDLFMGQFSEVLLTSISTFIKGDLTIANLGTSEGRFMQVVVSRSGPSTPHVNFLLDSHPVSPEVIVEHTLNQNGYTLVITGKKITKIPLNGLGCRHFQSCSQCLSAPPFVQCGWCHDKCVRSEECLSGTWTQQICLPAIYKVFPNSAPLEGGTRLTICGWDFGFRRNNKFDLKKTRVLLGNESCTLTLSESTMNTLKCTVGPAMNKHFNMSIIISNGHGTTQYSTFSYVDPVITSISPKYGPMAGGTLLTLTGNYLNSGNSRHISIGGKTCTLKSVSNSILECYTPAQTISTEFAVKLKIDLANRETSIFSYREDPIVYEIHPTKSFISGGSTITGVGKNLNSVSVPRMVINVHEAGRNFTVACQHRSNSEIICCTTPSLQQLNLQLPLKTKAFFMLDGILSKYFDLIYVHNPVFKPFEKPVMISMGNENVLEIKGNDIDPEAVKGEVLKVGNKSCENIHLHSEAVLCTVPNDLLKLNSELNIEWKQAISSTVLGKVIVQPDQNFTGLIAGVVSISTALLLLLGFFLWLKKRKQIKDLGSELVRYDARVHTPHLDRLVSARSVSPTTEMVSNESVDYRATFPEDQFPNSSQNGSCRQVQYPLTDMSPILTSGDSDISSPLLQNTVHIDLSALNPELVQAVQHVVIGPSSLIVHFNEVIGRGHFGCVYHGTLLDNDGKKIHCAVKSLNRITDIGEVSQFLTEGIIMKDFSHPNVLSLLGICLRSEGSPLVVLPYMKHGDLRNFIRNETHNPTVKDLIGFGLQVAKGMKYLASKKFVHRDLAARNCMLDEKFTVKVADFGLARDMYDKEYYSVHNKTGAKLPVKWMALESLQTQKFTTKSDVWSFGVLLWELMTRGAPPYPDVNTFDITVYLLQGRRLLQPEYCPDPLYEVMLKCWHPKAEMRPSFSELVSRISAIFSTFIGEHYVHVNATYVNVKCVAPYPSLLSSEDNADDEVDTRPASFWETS

| IC50 [2] | inhibition at 10 µM [1, 4] | Molecule | further results |
| --- | --- | --- | --- |
| 290 ± 20 nM |  | CCOc1ccn(-c2ccc(F)cc2)c(=O)c1C(=O)Nc1ccc(Oc2ccnc(N)c2Cl)c(F)c1 [BMS-777607, N-(4-(2-amino-3-chloropyridin-4-yloxy)-3-fluorophenyl)-4-ethoxy-1-(4-fluorophenyl)-2-oxo-1,2-dihydropyridine-3-carboxamide, reference compound] | IC50 [1]: 3.7 ± 1.3 nM; IC50 [3]: 3.9 nM |
|  | 63.9% | NC(=O)c1nccc(Oc2ccc(NC(=O)C3CCCN(c4ccc(F)cc4)C3=O)cc2F)c1Cl (centres unmarked) [Compound 15a, 3-Chloro-4-(2-fluoro-4-(1-(4-fluorophenyl)-2-oxopiperidine-3-carboxamido)phenoxy)picolinamide] |  |
|  | 90.2% | NC(=O)c1nccc(Oc2ccc(NC(=O)C3(Cl)CCCN(c4ccc(F)cc4)C3=O)cc2F)c1Cl (centres unmarked) [Compound 15b, 3-Chloro-4-(4-(3-chloro-1-(4-fluorophenyl)-2-oxopiperidine-3-carboxamido)-2-fluorophenoxy)-picolinamide] | inhibition at 1 µM [1, 5]: 38.7% |
|  | 28.4% | COc1ccc(CNc2nccc(Oc3ccc(NC(=O)C4CCCN(c5ccc(F)cc5)C4=O)cc3F)n2)cc1 (centres unmarked) [Compound 18a, N-(3-fluoro-4-((2-((4-methoxybenzyl)amino)pyrimidin-4-yl)oxy)phenyl)-1-(4-fluorophenyl)-2-oxo-piperidine-3-carboxamide] |  |
|  | 10% | COc1ccc(CNc2nccc(Oc3ccc(NC(=O)C4(Cl)CCCN(c5ccc(F)cc5)C4=O)cc3F)n2)cc1 (centres unmarked) [Compound 18b, 3-Chloro-N-(3-fluoro-4-((2-((4-methoxybenzyl)amino)pyrimidin-4-yl)oxy)phenyl)-1-(4-fluorophenyl)-2-oxopiperidine-3-carboxamide] |  |
|  | 59.1% | Nc1nccc(Oc2ccc(NC(=O)C3CCCN(c4ccc(F)cc4)C3=O)cc2F)n1 (centres unmarked) [Compound 19a, N-(4-((2-aminopyrimidin-4-yl)oxy)-3-fluorophenyl)-1-(4-fluorophenyl)-2-oxopiperidine-3-carbox-amide] | inhibition at 1 µM [1, 5]: 27.5% |
|  | 52.5% | Nc1nccc(Oc2ccc(NC(=O)C3(Cl)CCCN(c4ccc(F)cc4)C3=O)cc2F)n1 (centres unmarked) [Compound 19b, N-(4-((2-aminopyrimidin-4-yl)oxy)-3-fluorophenyl)-3-chloro-1-(4-fluorophenyl)-2-oxopiperidine-3-carboxamide] | inhibition at 1 µM [1, 5]: 28.3% |
|  | 38.4% | COc1cc2nccc(Oc3ccc(NC(=O)C4CCCN(c5ccc(F)cc5)C4=O)cc3F)c2cc1OC (centres unmarked) [Compound 20a, N-(4-((6,7-dimethoxyquinolin-4-yl)oxy)-3-fluorophenyl)-1-(4-fluorophenyl)-2-oxopiperidine-3-carbox-amide] |  |
| 650 ± 130 nM |  | COc1cc2nccc(Oc3ccc(NC(=O)C4(C)CCCN(c5ccc(F)cc5)C4=O)cc3F)c2cc1OC (centres unmarked) [Compound 20c, N-(4-((6,7-dimethoxyquinolin-4-yl)oxy)-3-fluorophenyl)-1-(4-fluorophenyl)-3-methyl-2-oxopiperidine-3-carboxamide] | IC50 [1]: 11.2 ± 4.1 nM |
| 2950 ± 120 nM |  | CCC1(C(=O)Nc2ccc(Oc3ccnc4cc(OC)c(OC)cc34)c(F)c2)CCCN(c2ccc(F)cc2)C1=O (centres unmarked) [Compound 20d, N-(4-((6,7-dimethoxyquinolin-4-yl)oxy)-3-fluorophenyl)-3-ethyl-1-(4-fluorophenyl)-2-oxopiperidine-3-carboxamide] | IC50 [1]: 19.1 ± 4.5 nM |
| 16000 ± 800 nM |  | CCCCC1(C(=O)Nc2ccc(Oc3ccnc4cc(OC)c(OC)cc34)c(F)c2)CCCN(c2ccc(F)cc2)C1=O (centres unmarked) [Compound 20e, N-(4-((6,7-dimethoxyquinolin-4-yl)oxy)-3-fluorophenyl)-3-butyl-1-(4-fluorophenyl)-2-oxopiperidine-3-carboxamide] | IC50 [1]: 64 ± 10.8 nM |
|  |  | N-(4-((7H-pyrrolo[2,3-d]pyrimidin-4-yl)oxy)-3-fluorophenyl)-1-(4-fluorophenyl)-2-oxopiperidine-3-carboxamide [Compound 17a] | c-Met inhibition rate @1 μM [1, 5]: 41.9%@1 μM; c-Met inhibition rate @10 μM [1, 4]: 70.7%@10 μM |
|  |  | N-(4-((7H-pyrrolo[2,3-d]pyrimidin-4-yl)oxy)-3-fluorophenyl)-3-chloro-1-(4-fluorophenyl)-2-oxo-piperidine-3-carboxamide [Compound 17b] | c-Met inhibition rate @10 μM [1, 4]: 15.4%@10 μM |

| Molecule | IC50 [2] | inhibition at 10 µM [1, 4] | further results |
| --- | --- | --- | --- |
| COc1cc2nccc(Oc3ccc(NC(=O)C4(Cl)CCCN(c5ccc(F)cc5)C4=O)cc3F)c2cc1OC (centres unmarked) [Compound 20b, 3-Chloro-N-(4-((6,7-dimethoxyquinolin-4-yl)oxy)-3-fluorophenyl)-1-(4-fluorophenyl)-2-oxopiperidine-3-carboxamide] | 570 ± 40 nM |  |  |
